This note sets out measurements from ChEMBL document CHEMBL1201862, “PubChem BioAssay data set” (2004).

Each structure is given as a SMILES string.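 In this assay, cells in 96-well plates receive the compound at five concentrations for 48 hours. Endpoints are linearly interpolated between the surrounding concentrations. Here, GI50 denotes the concentration required for 50% inhibition of growth.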 The source made the active and inactive calls. No stated cut-off is given here; in the data, active = GI50 up to about 1.1 µM and inactive = higher.

Some test systems named below: A498; ACHN; CCRF-CEM; EKVX; HCT-116; HOP-62; IGROV-1; KM12; LOX IMVI; M19-MEL; Malme-3M; RPMI-8226; SF-268; SF-539; SK-MEL-28; SK-MEL-2; SN12C; SW-620; DU-145; MDA-MB-435.
Common to all, as to test: NCI anticancer screen, dose series, 48 h

Take `CS(=O)(=O)CSCSSCS(C)(=O)=O`: the GI50 in the experiment with A498 is 88900 nM (inactive); in the experiment with ACHN it was 40000 nM (inactive); in the experiment on CCRF-CEM, 22200 nM (inactive); in the experiment on EKVX, > 100000 nM (inactive); in the experiment on HCT-116, 34400 nM (inactive); in the experiment on HOP-62 it was 51800 nM (inactive). For the same molecule, the GI50 in the experiment with IGROV-1 was 51800 nM (inactive); in the experiment on KM12, 44200 nM (inactive); in the experiment on LOX IMVI, 13600 nM (inactive); in the experiment on M19-MEL, > 57900 nM (inactive); in the experiment on Malme-3M it was 38700 nM (inactive); in the experiment on RPMI-8226, 20400 nM (inactive). For the same molecule, the GI50 was 26200 nM (inactive) in the experiment with SF-268; 22000 nM (inactive) in the experiment on SF-539; 24600 nM (inactive) with SK-MEL-28; 21200 nM (inactive) with SK-MEL-2; 29200 nM (inactive) in the experiment with SN12C; 16800 nM (inactive) in the experiment on SW-620.

As for `CCC1=C(CC2NCCc3ccccc32)CC2c3cc(OC)c(OC)cc3CCN2C1` (configuration not stated), the GI50 in the experiment on A498 is 830 nM (active); in the experiment with ACHN, 367 nM (active); in the experiment with CCRF-CEM, 357 nM (active); with DU-145 it was 356 nM (active); in the experiment with EKVX it was 305 nM (active); in the experiment on HCT-116, 307 nM (active). Moreover, the GI50 in the experiment on HOP-62 is 627 nM (active); with IGROV-1, 693 nM (active); in the experiment on KM12, 443 nM (active); in the experiment on LOX IMVI it was 359 nM (active); with M19-MEL, 627 nM (active); in the experiment with MDA-MB-435, 327 nM (active). The GI50 was 603 nM (active) with Malme-3M; 392 nM (active) in the experiment on RPMI-8226; 719 nM (active) with SF-268; 578 nM (active) in the experiment on SF-539; 1160 nM (inactive) in the experiment with SK-MEL-28; 603 nM (active) in the experiment with SK-MEL-2. For the same molecule, the GI50 was 500 nM (active) in the experiment on SN12C and 384 nM (active) in the experiment on SW-620.

On to `CC(=O)O[C@H]1C(=O)[C@@]2(C)C(C(OC(=O)c3ccccc3)[C@]3(O)C[C@H](OC(=O)C(OC(=O)CCCC(=O)NCCCN(C)C)C(NC(=O)c4ccccc4)c4ccccc4)C(C)=C1C3(C)C)C1(OC(C)=O)COC1C[C@@H]2O` (some centres not stated), for which the GI50 with A498 was 60.7 nM (active); in the experiment on ACHN it was 652 nM (active); in the experiment on CCRF-CEM, < 10 nM (active); in the experiment with DU-145, 10.5 nM (active); with EKVX it was 262 nM (active); in the experiment on HCT-116, < 10 nM (active). The GI50 with HOP-62 was 16 nM (active); in the experiment with IGROV-1, 13.8 nM (active); in the experiment on KM12, < 10 nM (active); in the experiment with LOX IMVI it was < 10 nM (active); in the experiment on M19-MEL, < 10 nM (active); with MDA-MB-435, < 10 nM (active). The GI50 with Malme-3M is < 10 nM (active); in the experiment on RPMI-8226, < 10 nM (active); in the experiment with SF-268 it was 10.9 nM (active); in the experiment on SF-539, < 10 nM (active); in the experiment on SK-MEL-28, < 10 nM (active); in the experiment on SK-MEL-2, < 10 nM (active). Also, the results for the GI50 with SN12C and in the experiment with SW-620 were < 12.2 nM (active) and < 10 nM (active), respectively.

Regarding `CCCCCCCCCCCCCCCC(=O)OCC1OC(n2ccc(N)nc2=O)C(O)C1O` (configuration not stated), the GI50 in the experiment with A498 is 4490 nM (inactive); in the experiment with ACHN it was 753 nM (active); with CCRF-CEM, 10.6 nM (active); in the experiment on DU-145 it was 2120 nM (inactive); in the experiment on EKVX, > 69000 nM (inactive); with HCT-116, 2220 nM (inactive). Further, the GI50 in the experiment with HOP-62 is 403 nM (active); in the experiment with IGROV-1, > 100000 nM (inactive); in the experiment on KM12, > 100000 nM (inactive); in the experiment on LOX IMVI, 4700 nM (inactive); in the experiment with M19-MEL, 2260 nM (inactive); with MDA-MB-435 it was 6750 nM (inactive). Further, the GI50 in the experiment on Malme-3M was 5280 nM (inactive); with RPMI-8226 it was > 87900 nM (inactive); in the experiment with SF-268, 12100 nM (inactive); in the experiment on SF-539, > 100000 nM (inactive); in the experiment on SK-MEL-28, 33500 nM (inactive); in the experiment on SK-MEL-2, > 100000 nM (inactive). For the same molecule, the GI50 in the experiment with SN12C was 9950 nM (inactive).

Regarding `O=c1c2ccccc2n2nnc3ccc(NCCNCCO)c1c32`, the GI50 is 1890 nM (inactive) with A498; 824 nM (active) in the experiment with ACHN; 948 nM (active) in the experiment on CCRF-CEM; 112 nM (active) in the experiment on DU-145; 2080 nM (inactive) in the experiment with EKVX; 1290 nM (inactive) in the experiment with HCT-116. Moreover, the GI50 in the experiment on HOP-62 is 2080 nM (inactive); in the experiment on IGROV-1 it was 2470 nM (inactive); with KM12, 1660 nM (inactive); in the experiment on LOX IMVI, 1180 nM (inactive); in the experiment with M19-MEL it was 2260 nM (inactive); with MDA-MB-435, 1340 nM (inactive). Further, the GI50 is 1870 nM (inactive) in the experiment on Malme-3M; 1820 nM (inactive) in the experiment on RPMI-8226; 1710 nM (inactive) with SF-268; 3780 nM (inactive) with SF-539; 2870 nM (inactive) in the experiment on SK-MEL-28; 3190 nM (inactive) with SK-MEL-2. In addition, the GI50 in the experiment with SN12C is 1430 nM (inactive); in the experiment with SW-620 it was 710 nM (active).
